Assays:
[1] = Phase 1 SAD/MAD clinical trial, safety and tolerability; type: in vivo, human
Procedure: Otenaproxesul (crystalline form) was orally administered at a range of doses to healthy volunteers, both as a single dose, and as a daily (or twice-daily) dose for 14 days. Each cohort consisted of 8 subjects, with 6 receiving otenaproxesul and 2 receiving placebo. A total of 8 cohorts were studied in the single-dose study (25 mg, 75 mg, 150 mg, 300 mg, 500 mg, 1000 mg, 1500 mg and 2000 mg), and 3 cohorts in the multiple-dose study (250 and 750 once daily, and 750 mg bid (e.g., 1500 mg/day) for 14 days). All adverse events were recorded, and blood samples were drawn prior to and for at least 72 h after drug administration for measurement of otenaproxesul-derived naproxen levels. Routine cardiovascular, renal, hepatic and hematological biomarkers were monitored, along with clinical signs. Multiple ascending dose studies examined otenaproxesul at doses of 250 and 750 mg once daily, and 750 mg twice daily.

thromboxane B2 = assay: Phase 2b study, plasma thromboxane B2; type: in vivo, human
Procedure: Whole blood samples were taken pre-treatment and on Days 1, 4 and 14 for the measurement of thromboxane B2 as an index of cyclo-oxygenase enzyme inhibition. Thromboxane B2 levels were measured using the Thromboxane B2 Elisa Kit from Cayman Chemical, Ann Arbor Michigan. Instructions provided with the Kit were followed.
Blood samples for measurement of thromboxane concentrations were collected at room temperature in 10 mL red top, no additive Vacutainers. Blood samples were taken approximately 4 hours after dosing and divided into 2 aliquots. The first aliquot (1 mL) was prepared for the measurement of otenaproxesul-derived plasma naproxen concentrations. The second aliquot (2 mL) was further divided into 2 polypropylene tubes for the measurement of plasma thromboxane concentrations.

ALT and/or AST = assay: Phase 2b study, liver transaminase elevations; type: in vivo, human
Procedure: (§1) Study visits occurred on Day 1, Day 4, and Day 14 of the 14-day treatment phase and included WOMAC evaluations, blood samples for thromboxane B2 TXB2 and pharmacokinetic (PK) testing. The safety of otenaproxesul was evaluated through monitoring for adverse events (AEs), changes in physical examinations, vital signs measurements, and clinical laboratory evaluations.
(§2) All patients receiving any amount of study treatment (otenaproxesul or placebo) were included in the safety analysis. Each treatment arm was evaluated separately. In addition to the evaluation and categorization of treatment-emergent adverse events (TEAEs), listings of laboratory test results collected at Baseline and during the study were generated. Descriptive statistics summarizing the changes in those laboratory tests over time were presented.
The majority of otenaproxesul liver associated TEAEs were alanine aminotransferase (ALT) and/or aspartate aminotransferase (AST) liver transaminase elevations. None of these TEAEs were observed during the 14-day treatment period but were captured at the Day 24/Early Termination (ET) follow up assessment.

[2] = Phase 2b study, safety (treatment-emergent adverse events); type: in vivo, human; conditions: for hypertension or blood pressure increased: 2 patients
Procedure: as §1
Patients were followed for safety for up to 24 days following initiation of treatment. A final visit for safety assessments occurred upon study completion on Day 24 or early termination.
as §2

[3] = Stability/purity of ASDs by HPLC; type: physicochemical; conditions: no storage condition given
Procedure: The stability of the exemplary amorphous solid dispersions of the application were evaluated using HPLC and are shown in Tables 14 A and B.
HPLC analyses were performed on a Waters 2695 or Agilent 1200, or equivalent, instrument. The column was an ACE-5 C18 150 mm×4.6 mm, 5 μm or equivalent column. The flow rate was 1.0 mL/min, the injection volume was 10 μL, the column temperature was 25° C., the sample temperature was 5° C. and the wavelength for detection was 254 nm. Two eluents were used which were either (1) A: 1.8 g K2HPO4·3H2O dissolved in 1000 ml of water and pH adjusted to 5.5 using orthophosphoric acid and B: acetonitrile; or (2) A: 1.4 g K2HPO4·3H2O dissolved in 1000 ml of water and pH adjusted to 7.0 with 85% phosphoric acid and B: acetonitrile.

[4] = single dose, oral, 25 mg to 2000 mg, crystalline

Which results are given for `COc1ccc2cc([C@H](C)C(=O)Oc3ccc(C(N)=S)cc3)ccc2c1` [otenaproxesul, (S)-4-carbamothioylphenyl 2-(6-methoxynaphthalen-2-yl) propanoate]?
tolerability ([1]; all single, once daily administered dose levels): very well tolerated and shown to be safe; gastrointestinal, cardiovascular, renal or hematological findings [1, 4]: nor were there any significant gastrointestinal, cardiovascular renal, or hematological findings; serious adverse events [1, 4]: did not produce any serious adverse events; plasma thromboxane B2 levels (thromboxane B2; 150 mg daily): marked reduction in plasma thromboxane B2 levels; TXB2 levels (thromboxane B2; Day 1, 150, 200, 250 mg): significant suppression of thromboxane B2 levels; inhibition of TXB2 synthesis (thromboxane B2; Day 4, 150, 200, 250 mg): profound inhibition of thromboxane B2 synthesis; inhibition of TXB2 synthesis (thromboxane B2; Day 14, 150, 200, 250 mg): profound inhibition of thromboxane B2 synthesis; patients with treatment-related >3×ULN ALT and/or AST (ALT and/or AST; 150 mg (6/61)): 9.8%; patients with treatment-related increases in ALT and/or AST (ALT and/or AST; 150 mg (6/61)): 9.8%; patients with treatment-related >3×ULN ALT and/or AST (ALT and/or AST; 200 mg (9/125)): 7.2%; patients with treatment-related increases in ALT and/or AST (ALT and/or AST; 200 mg (9/125)): 7.2%; patients with treatment-related >3×ULN ALT and/or AST (ALT and/or AST; 250 mg (17/132)): 12.9%; patients with treatment-related increases in ALT and/or AST (ALT and/or AST; 250 mg (17/132)): 12.9%; hypertension or hypotension events ([2]; 150 mg): No patients; patients with TEAEs ([2]; 150 mg): 37.7%; hypotension ([2]; 200 mg, 1 patient): 0.8%; hypertension or blood pressure increased ([2]; 200 mg): 1.6%; patients with TEAEs ([2]; 250 mg): 43.9%; hypertension or blood pressure increased ([2]; 250 mg): 1.5%; TEAE headache ([2]; all otenaproxesul groups): 5.0%; TEAE hepatic enzyme increased ([2]; all otenaproxesul groups): 8.2%; patients with at least 1 TEAE ([2]; all otenaproxesul groups): 40.9%; gastrointestinal disorder TEAEs ([2]; all otenaproxesul groups, 14-day treatment): 14.5%; tolerability ([2]; all three doses, 14 days): well tolerated at all three administered doses; discontinuation due to gastrointestinal TEAEs ([2]; all three treatment arms): none were discontinued due to TEAEs related to gastrointestinal adverse effects; serum creatinine ([2]; one patient, 200 mg for 14 days, Day 24): 1.5 ×ULN

What does the source list for `COc1ccc2cc([C@H](C)C(=O)Oc3ccc(C(N)=S)cc3)ccc2c1` [crystalline otenaproxesul]?
ATB-346 API [3]: 99.45%; RRT-0.84 [3]: 0.18%; RRT-0.85 ATB-346-Amide [3]: 0.07%; RRT-1.10 [3]: 0.25%

From US20260355142A1, “AMORPHOUS OTE[…] COMPOSITIONS AND USES THEREOF AND DOSAGE REGIMENS FOR OTENAPROXESUL” (ANTIBE THERAPEUTICS INC., priority 2022, published 2026)
